This assay relates to PC-12. Kind of assay: Neuroprotective activity against CoCl2-induced neuronal injury in rat PC12 cells. It counts as functional, cell-based.

`CC1(C)[C@@H](O)CC[C@]2(C)[C@H]3C(=O)C=C4[C@@H]5C[C@@](C)(C(=O)O[C@@H]6O[C@H](CO)[C@@H](O)[C@H](O)[C@H]6O)CC[C@]5(C)CC[C@@]4(C)[C@]3(C)[C@@H](O)C[C@@H]12`: the EC50 was > 40 µM.
Take `CC1(C)[C@@H](O)CC[C@]2(C)[C@H]3CC=C4[C@@H]5C[C@](C)(C(=O)O)[C@@H](O)C[C@]5(C(=O)O)CC[C@@]4(C)[C@]3(C)[C@@H](O)C[C@@H]12`: the EC50 came out at 0.48 µM.
The value for `CC1(C)[C@@H](O)CC[C@]2(C)[C@H]3C(=O)C=C4[C@@H]5C[C@@](C)(C(=O)O[C@@H]6O[C@H](CO)[C@@H](O)[C@H](O)[C@H]6O)CC[C@]5(C)CC[C@@]4(C)[C@]3(C)CC[C@@H]12` was > 40 µM; that for `CC1(C)C[C@H]2C3=CC[C@@H]4[C@@]5(C)CC[C@H](O[C@H]6O[C@@H](CO)[C@H](O)[C@@H](O)[C@@H]6O)C(C)(C)[C@@H]5C[C@H](O)[C@@]4(C)[C@]3(C)CC[C@@]2(C(=O)O)C[C@@H]1O` was > 40 µM.
With `CC1(C)[C@@H](O)CC[C@]2(C)[C@H]3C(=O)C=C4[C@@H]5C[C@@](C)(C(=O)O)CC[C@]5(C)CC[C@@]4(C)[C@]3(C)[C@@H](O)C[C@@H]12` the figure was 1.76 µM; with `CC1(C)[C@@H](O)CC[C@]2(C)[C@H]3CC=C4[C@@H]5C[C@](C)(CO)[C@@H](O)C[C@]5(C(=O)O)CC[C@@]4(C)[C@]3(C)[C@@H](O)C[C@@H]12`, 7.74 µM; with `CC1(C)C[C@H]2C3=CC[C@@H]4[C@@]5(C)CC[C@H](O)C(C)(C)[C@@H]5C[C@H](O)[C@@]4(C)[C@]3(C)CC[C@@]2(C(=O)O)C[C@@H]1O`, > 40 µM.
`CC1(C)[C@@H](O)CC[C@]2(C)[C@H]3C(=O)C=C4[C@@H]5C[C@@](C)(C(=O)O)CC[C@]5(C)CC[C@@]4(C)[C@]3(C)CC[C@@H]12` [ENOXOLONE]: the EC50 is 0.89 µM.
With `CC1(C)CC[C@]2(C(=O)O)CC[C@]3(C)C(=CC[C@@H]4[C@@]5(C)CC[C@H](O)C(C)(C)[C@@H]5CC[C@]43C)[C@@H]2C1` [OLEANOLIC_ACID] the figure was 8.55 µM; with `OC[C@H]1O[C@@H](OCCc2ccc(O)cc2)[C@H](O)[C@@H](O)[C@@H]1O` [SALIDROSIDE], 0.21 µM.
